Experimental findings from PubChem BioAssay (NCI) are described below.

“And” between values parts separate entries of the source, which are not always exact repeats. Equal entries are not always repeated.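 Growth conditions: 96-well plates. Treatment: test compound, 48 hours, 5 concentrations. Analysis: linear interpolation between bracketing concentrations; unreached endpoints set to highest concentration. GI50: concentration for 50% inhibition of growth. TGI: total growth inhibition.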

One experiment has as its system OVCAR-4 ovarian. The experiment can be described thus: NCI anticancer screen, dose series, 48 h.
In turn, `Cc1c(C(=O)CC(=O)C(=O)Nc2ccccc2C(F)(F)F)[n+](=O)c2ccccc2n1[O-]` gave a TGI of 42 µM.

For `O=C(CCc1nc(=S)[nH][nH]1)Nc1cc(Cl)c(Cl)cc1Cl`, the TGI is above 100 µM.

Consider `CC1(C)C(=O)/C=C\C(=O)C(C)(C)C2=CC=C(O2)C(C)(C)C(=O)/C=C\C(=O)C(C)(C)C2=CC=C1O2`, for which the TGI is above 100 µM.

Compound `Cc1cc(NS(=O)(=O)c2ccc(Nc3c4ccccc4nc4c(C(=O)N5CCN(CCOS(C)(=O)=O)CC5)cccc34)cc2)no1` displayed a TGI above 100 µM.

Regarding `CCn1c(C)nn2c(=O)c3ccccc3nc2c1=O`, the TGI is above 100 µM.

Take `CCCCCCCCCCCC(=O)OCCOCCOCCOCCOCCOCc1ccccc1`: the TGI was above 100 µM.

For the compound `CCCCCCCCCCCCCC(=O)OC(/C=C/C(C)C)C(O)C(O)C(OC)C(=O)NC1CCCCN(C)C1=O` (stereo unspecified), the TGI was 7.57 µM and > 49 µM.

As to `COc1cc2c(cc1OCCCCN1CCN(CC(=O)Nc3ccc(Cl)cc3C(=O)c3ccccc3Cl)CC1)N=CC1CCCN1C2=O` (stereo unspecified), the GI50 is 0.262 µM and the TGI worked out at 0.962 µM.

The next experiment relates to EKVX NSCLC. The experiment can be described thus: NCI anticancer screen, dose series, 48 h.
On to `Cc1c(C(=O)CC(=O)C(=O)Nc2ccccc2C(F)(F)F)[n+](=O)c2ccccc2n1[O-]`, for which the TGI stood at 49.4 µM.

The compound `C1=C2/CC[C@H](Sc3ccccc3)C2C2(CCCCC/1)OCCO2` (stereo partly specified) had a TGI above 100 µM.

Turning to `CC1(C)C(=O)/C=C\C(=O)C(C)(C)C2=CC=C(O2)C(C)(C)C(=O)/C=C\C(=O)C(C)(C)C2=CC=C1O2`, the TGI was above 100 µM.

In turn, `CCn1c(C)nn2c(=O)c3ccccc3nc2c1=O` showed a TGI above 100 µM.

For the compound `CC(=O)[CH-]C(=O)c1ccccc1.CC(=O)[CH-]C(=O)c1ccccc1.CN(C)c1ccc([O-])cc1.CN(C)c1ccc([O-])cc1.Cl.[Ti+4]`, the GI50 was 24.6 µM and the TGI is above 31.6 µM.

`CCCCCCCCCCCC(=O)OCCOCCOCCOCCOCCOCc1ccccc1` yielded a TGI above 100 µM.

As for `CCCCCCCCCCCCCC(=O)OC(/C=C/C(C)C)C(O)C(O)C(OC)C(=O)NC1CCCCN(C)C1=O` (stereo unspecified), the GI50 was 5.01 µM and 15.7 µM; the TGI was 17.3 µM and > 49 µM.

Consider `CCOC(=O)CCC1(C(=O)OCC)CCCCC1=O` (stereo unspecified), for which the TGI was above 100 µM.

`COc1cc2c(cc1OCCCCN1CCN(CC(=O)Nc3ccc(Cl)cc3C(=O)c3ccccc3Cl)CC1)N=CC1CCCN1C2=O` (stereo unspecified): the GI50 was 0.375 µM and the TGI came out at 1.07 µM.

Another experiment has as its system SF-539 CNS. The experiment can be described thus: NCI anticancer screen, dose series, 48 h.
`Cc1c(C(=O)CC(=O)C(=O)Nc2ccccc2C(F)(F)F)[n+](=O)c2ccccc2n1[O-]` returned a TGI of 46.2 µM.

`C1=C2/CC[C@H](Sc3ccccc3)C2C2(CCCCC/1)OCCO2` (stereo partly specified) gave a TGI above 100 µM.

As for `O=C(CCc1nc(=S)[nH][nH]1)Nc1cc(Cl)c(Cl)cc1Cl`, the TGI is above 100 µM.

`Cc1cc(NS(=O)(=O)c2ccc(Nc3c4ccccc4nc4c(C(=O)N5CCN(CCOS(C)(=O)=O)CC5)cccc34)cc2)no1` registered a TGI above 100 µM.

The compound `CCn1c(C)nn2c(=O)c3ccccc3nc2c1=O` returned a TGI above 100 µM.

On to `CC(=O)[CH-]C(=O)c1ccccc1.CC(=O)[CH-]C(=O)c1ccccc1.CN(C)c1ccc([O-])cc1.CN(C)c1ccc([O-])cc1.Cl.[Ti+4]`, for which the GI50 is 19 µM and the TGI is above 31.6 µM.

Consider `CCCCCCCCCCCCCC(=O)OC(/C=C/C(C)C)C(O)C(O)C(OC)C(=O)NC1CCCCN(C)C1=O` (stereo unspecified), for which the TGI is 7.18 µM and > 49 µM.

As for `CCOC(=O)CCC1(C(=O)OCC)CCCCC1=O` (stereo unspecified), the TGI was above 100 µM.

Take `COc1cc2c(cc1OCCCCN1CCN(CC(=O)Nc3ccc(Cl)cc3C(=O)c3ccccc3Cl)CC1)N=CC1CCCN1C2=O` (stereo unspecified): the GI50 is 0.236 µM and the TGI is 0.501 µM.

The next experiment deals with SW-620 colon. Put plainly: NCI anticancer screen, dose series, 48 h.
The compound `Cc1c(C(=O)CC(=O)C(=O)Nc2ccccc2C(F)(F)F)[n+](=O)c2ccccc2n1[O-]` gave a TGI of 47 µM.

For `C1=C2/CC[C@H](Sc3ccccc3)C2C2(CCCCC/1)OCCO2` (stereo partly specified), the TGI is above 100 µM.

As for `O=C(CCc1nc(=S)[nH][nH]1)Nc1cc(Cl)c(Cl)cc1Cl`, the TGI was above 100 µM.

Regarding `CC1(C)C(=O)/C=C\C(=O)C(C)(C)C2=CC=C(O2)C(C)(C)C(=O)/C=C\C(=O)C(C)(C)C2=CC=C1O2`, the TGI is above 100 µM.

In turn, `CCn1c(C)nn2c(=O)c3ccccc3nc2c1=O` showed a TGI above 100 µM.

Turning to `CC(=O)[CH-]C(=O)c1ccccc1.CC(=O)[CH-]C(=O)c1ccccc1.CN(C)c1ccc([O-])cc1.CN(C)c1ccc([O-])cc1.Cl.[Ti+4]`, the GI50 is 18.5 µM and the TGI is above 31.6 µM.

In turn, `CCCCCCCCCCCC(=O)OCCOCCOCCOCCOCCOCc1ccccc1` yielded a TGI above 100 µM.

Turning to `CCCCCCCCCCCCCC(=O)OC(/C=C/C(C)C)C(O)C(O)C(OC)C(=O)NC1CCCCN(C)C1=O` (stereo unspecified), the GI50 is above 49 µM; the TGI was 6.06 µM and > 49 µM.

In turn, `CCOC(=O)CCC1(C(=O)OCC)CCCCC1=O` (stereo unspecified) had a TGI above 100 µM.

As for `COc1cc2c(cc1OCCCCN1CCN(CC(=O)Nc3ccc(Cl)cc3C(=O)c3ccccc3Cl)CC1)N=CC1CCCN1C2=O` (stereo unspecified), the GI50 is 0.238 µM and the TGI came out at 0.726 µM.

Another experiment concerns CCRF-CEM leukemia. The experiment can be described thus: NCI anticancer screen, dose series, 48 h.
`Cc1c(C(=O)CC(=O)C(=O)Nc2ccccc2C(F)(F)F)[n+](=O)c2ccccc2n1[O-]` returned a TGI of 50 µM.

Regarding `C1=C2/CC[C@H](Sc3ccccc3)C2C2(CCCCC/1)OCCO2` (stereo partly specified), the TGI is above 100 µM.

`O=C(CCc1nc(=S)[nH][nH]1)Nc1cc(Cl)c(Cl)cc1Cl` registered a TGI above 100 µM.

`CC1(C)C(=O)/C=C\C(=O)C(C)(C)C2=CC=C(O2)C(C)(C)C(=O)/C=C\C(=O)C(C)(C)C2=CC=C1O2` yielded a TGI above 100 µM.

Consider `Cc1cc(NS(=O)(=O)c2ccc(Nc3c4ccccc4nc4c(C(=O)N5CCN(CCOS(C)(=O)=O)CC5)cccc34)cc2)no1`, for which the TGI was above 100 µM.

Take `CCn1c(C)nn2c(=O)c3ccccc3nc2c1=O`: the TGI was above 100 µM.
